Measurements from publication PMC6274259, “New 3-Cyano-2-Substituted Pyridines Induce Apoptosis in MCF 7 Breast Cancer Cells” (Molecules, 2016).

Assays:
[1] = test system: SK-OV-3 human ovarian carcinoma cell line; assay: WST-1 cell viability assay, SK-OV-3; format: cell-based; settings: WST-1, 24 h treatment, mean ± S.D of three independent experiments
Text: (§1) The synthesized compounds were screened for their cytotoxicity on five cancer cell lines, namely SK-OV-3, MCF-7, MDA-MB-231, HCT-116 and RKO, using a WST colorimetric assay. The assay principle is based upon the reduction of the tetrazolium salt WST-1 to formazan by cellular mitochondrial dehydrogenases present in viable cells. […] Among the latter compounds the benzohydrazide derivative 9a emerged with the lowest IC50 in this study against MCF-7 cells compared to 5-FU. […] Based on the fact that 9a had less cytotoxic effects on normal breast epithelial cells it was subjected to further studies.
(§2) The following cell lines were used for the screening stage, obtained from the American Type Culture Collection (ATCC, Manassas, VA, USA); SK-OV-3 (HTB-77), MCF-12A (ATCC CRL-10782), MDA-MB-231 (ATCC HTB-26), HCT-116 (CCL-247), RKO (CRL-2577) and sub-culturing of the above cell lines was conducted in 75 cm^2 flasks. The old culture media was removed and discarded after assessing the confluency of the cells and the cells were rinsed with 2–3 mL diluted trypsin (1×) (trypsin/EDTA solution consists of 0.025% trypsin and 0.01% EDTA in PBS), for about 5 minutes for complete detachment. The cells were observed under the inverted microscope until the cell layer is completely dispersed. 75 cm^2 flasks were prepared and 16 mL of DMEM media for SK-OV-3, MCF-7, MDA-MB-231, (DMEM 4500 mg glucose) and RPMI media for HCT-116 were added to each flask. The cells were aspirated gently and added to the flasks. DMEM 4500 mg/L high glucose with 10% FBS, 5% streptomycin and penicillin, RPMI 1640 (prepared by adding 5% heat-inactivated FCS and 2 mm glutamine) were used. DMEM was also used for MCF-12A cells with the addition of human epidermal growth factor 20 ng/mL, insulin 0.01 mg/mL and hydrocortisone 500 ng/mL.
(§3) The synthesized compounds were screened for their anti-proliferative activity using 5-FU (F6627-1G, Sigma-Aldrich, St. Louis, MO, USA) as reference compound. A concentration of 0.4% DMSO was used in all experiment after ensuring 100% viability of the cell lines with this concentration. A 25 mM stock concentration of all compounds was prepared for further studies and analysis.
(§4) Cells were trypsinized and placed in a 15 mL Falcon tube, the cells were centrifuged for 3 min at 1000 rpm. Trypsin is decanted using a sterile pipette and then the pellet is loosened by flicking the tube few times then 5–10 mL warm DMEM or RPMI were added to the Falcon tube and the pellet is resuspended. Cell count was done next by taking 10 μL of the suspension into the cell counting slide and read under 10× cells/mL. A cell stock of 50,000 cells/mL was prepared for the 96 wells. Cells (100 μL) were added to each well using a sterile pipette each time to ensure consistency. The experiment was planned ahead of time using excel sheet, 3–6 wells were reserved as blank media while 3–6 wells for vehicle (DMSO). The plate was incubated for 24 h for compound treatment step. DMEM media was used to prepare different dilutions of the compounds. The old DMEM media was removed from the wells using sterile pipette in the hood and the media was replaced with 100 μL media with each compound. The plate was incubated for 24 h. After 24 h incubation, WST-1 reagent (Sigma) was added to each well and then the plate was incubated for 1 h before measuring the absorbance using VICTOR™ Multilabel Plate Reader (Perkin Elmer, Beaconsfield, UK). The absorbance of the colored solution can be quantified by measuring at a certain wavelength (usually between 500–600 nm), in this experiment the first reading was conducted at 540 nm and the second reading at 690 nm for the reference wavelength. The percentage of cell viability was determined as the ratio of the absorbance of the sample vs the control. Three independent experiments were performed. […] 5-Florouracil (Sigma-Aldrich, F6627-1G) was used as reference standard.

[2] = test system: MCF-7 human breast adenocarcinoma cell line; assay: WST-1 cell viability assay, MCF-7; format: cell-based; settings: WST-1, 24 h treatment, mean ± S.D of three independent experiments
Text: as §1, §2, §3, §4

[3] = test system: MDA-MB-231 human breast adenocarcinoma cell line; assay: WST-1 cell viability assay, MDA-MB-231; format: cell-based; settings: WST-1, 24 h treatment, mean ± S.D of three independent experiments
Text: as §1, §2, §3, §4

[4] = test system: HCT-116 human colon carcinoma cell line; assay: WST-1 cell viability assay, HCT-116; format: cell-based; settings: WST-1, 24 h treatment, mean ± S.D of three independent experiments
Text: as §1, §2, §3, §4

[5] = test system: RKO human colon carcinoma cell line; assay: WST-1 cell viability assay, RKO; format: cell-based; settings: WST-1, 24 h treatment, mean ± S.D of three independent experiments
Text: as §1, §2, §3, §4

[6] = Homo sapiens, Colon carcinoma cell

Structure (SMILES) | IC50 ([1]; Homo sapiens, SK-OV-3) [µM] | IC50 ([2]; Homo sapiens, MCF7, 24 h) [µM] | IC50 ([3]; Homo sapiens, MDA-MB-231) [µM] | IC50 ([4]; Homo sapiens, HCT-116) [µM] | IC50 [5, 6] [µM] | melting point [°C] | IC50 [1] [µM] | IC50 [2] [µM] | IC50 [3] [µM] | IC50 [4] [µM] | IC50 [5] [µM]
COc1ccc(-c2cc(-c3ccc(OC)c(OC)c3)c(C#N)c(OC)n2)cc1OC [Compound 4a, 2-Methoxy-4,6-bis(3,4-dimethoxyphenyl)pyridine-3-carbonitrile] | 11.4 ± 0.72 | 9.08 ± 0.37 | 32.1 ± 0.84 | 20.3 ± 0.85 | 13.2 ± 0.77 | – | – | – | – | – | –
CCOc1nc(-c2ccc(OC)c(OC)c2)cc(-c2ccc(OC)c(OC)c2)c1C#N [Compound 4b, 2-Ethoxy-4,6-bis(3,4-dimethoxyphenyl)pyridine-3-carbonitrile] | 18.2 ± 0.98 | 15.5 ± 0.46 | 40 ± 1.36 | 26.2 ± 1.22 | 19.8 ± 0.37 | – | – | – | – | – | –
CCCOc1nc(-c2ccc(OC)c(OC)c2)cc(-c2ccc(OC)c(OC)c2)c1C#N [Compound 4c, 4,6-bis(3,4-Dimethoxyphenyl)-2-propoxypyridine-3-carbonitrile] | 22.1 ± 1.32 | 12.3 ± 0.77 | 44.9 ± 1.74 | 10.1 ± 0.76 | 18.1 ± 1.03 | – | – | – | – | – | –
COc1ccc(-c2cc(-c3ccc(OC)c(OC)c3)c(C#N)c(OCC(C)=O)n2)cc1OC [Compound 4d, 4,6-bis(3,4-Dimethoxyphenyl)-2-(2-oxopropoxy)pyridine-3-carbonitrile] | 25.2 ± 0.76 | 20.3 ± 0.98 | 35.8 ± 0.96 | 13.1 ± 0.84 | 17.4 ± 0.44 | 110 to 112 | – | – | – | – | –
CCOC(=O)COc1nc(-c2ccc(OC)c(OC)c2)cc(-c2ccc(OC)c(OC)c2)c1C#N [Compound 5, Ethyl 2-(3-Cyano-4,6-bis(3,4-dimethoxyphenyl)pyridin-2-yloxy)acetate] | 10.2 ± 0.44 | 15.4 ± 0.94 | 25.1 ± 0.87 | 14.9 ± 0.98 | 22.1 ± 0.97 | – | – | – | – | – | –
O=c1[nH]cc(F)c(=O)[nH]1 [Compound 5-FU, 5-Florouracil, reference compound] | – | – | – | – | – | – | 32.2 ± 1.03 | 7.06 ± 0.91 | 15.1 ± 0.94 | 12.2 ± 1.1 | 20.2 ± 1.16
COc1ccc(-c2cc(-c3ccc(OC)c(OC)c3)c(C#N)c(OCC(=O)NNC(=S)SC)n2)cc1OC [Compound 7a, Methyl 2-[2-(3-cyano-4,6-bis(3,4-dimethoxyphenyl)pyridin-2-yloxy)acetyl]hydrazinecarbodithioate] | 9.01 ± 0.42 | 11.2 ± 0.22 | 30.1 ± 0.88 | 23.2 ± 0.95 | 11.2 ± 0.91 | 151 to 153 | – | – | – | – | –
CCSC(=S)NNC(=O)COc1nc(-c2ccc(OC)c(OC)c2)cc(-c2ccc(OC)c(OC)c2)c1C#N [Compound 7b, Ethyl 2-[2-(3-cyano-4,6-bis(3,4-dimethoxyphenyl)pyridin-2-yloxy)acetyl]hydrazinecarbodithioate] | 12.3 ± 0.88 | 18.1 ± 1.76 | 37.9 ± 1.25 | 9.1 ± 0.97 | 15.2 ± 1.13 | 144 to 146 | – | – | – | – | –
COc1ccc(-c2cc(-c3ccc(OC)c(OC)c3)c(C#N)c(OCC(=O)NNC(=S)SCCN3CCOCC3)n2)cc1OC [Compound 7c, 2-Morpholinoethyl-2-[2-(3-cyano-4,6-bis(3,4-dimethoxyphenyl)pyridin-2-yloxy)acetyl]hydrazinecarbo-dithioate] | 5.12 ± 0.11 | 7.1 ± 0.44 | 31.7 ± 0.89 | 26.9 ± 0.97 | 20.3 ± 0.76 | 158 to 160 | – | – | – | – | –
COc1ccc(-c2cc(-c3ccc(OC)c(OC)c3)c(C#N)c(OCC(=O)NNC(=S)SCCN3CCCCC3)n2)cc1OC [Compound 7d, 2-(Piperidin-1-yl)-ethyl-2-[2-(3-cyano-4,6-bis(3,4-dimethoxyphenyl)pyridin-2-yloxy)acetyl]hydrazinecarbo-dithioate] | 10.1 ± 0.98 | 14.3 ± 0.95 | 35.5 ± 1.03 | 11.2 ± 1.26 | 25 ± 1.33 | 160 to 162 | – | – | – | – | –
COc1ccc(C=NNC(=O)COc2nc(-c3ccc(OC)c(OC)c3)cc(-c3ccc(OC)c(OC)c3)c2C#N)cc1 [Compound 8a, 2-[3-Cyano-4,6-bis(3,4-dimethoxyphenyl)pyridin-2-yl]oxy-N'-(4-methoxybenzylidene)acetohydrazide] | 14.1 ± 0.95 | 12 ± 0.96 | 25.3 ± 1.24 | 28.8 ± 0.31 | 12.32 ± 0.02 | 163 to 164 | – | – | – | – | –
COc1ccc(C=NNC(=O)COc2nc(-c3ccc(OC)c(OC)c3)cc(-c3ccc(OC)c(OC)c3)c2C#N)cc1OC [Compound 8b, 2-[3-Cyano-4,6-bis(3,4-dimethoxyphenyl)pyridin-2-yl]oxy-N'-(3,4-dimethoxybenzylidene)acetohydrazide] | 10.2 ± 0.92 | 9.31 ± 0.98 | 32.3 ± 0.87 | 25.2 ± 0.89 | 14.2 ± 0.91 | 190 to 192 | – | – | – | – | –
COc1ccc(-c2cc(-c3ccc(OC)c(OC)c3)c(C#N)c(OCC(=O)NN=Cc3cc(OC)c(OC)c(OC)c3)n2)cc1OC [Compound 8c, 2-[3-Cyano-4,6-bis(3,4-dimethoxyphenyl)pyridin-2-yl]oxy-N'-(3,4,5-trimethoxybenzylidene)acetohydrazide] | 12.1 ± 0.98 | 15.3 ± 0.74 | 20.3 ± 1.06 | 25.9 ± 0.83 | 16.3 ± 0.37 | 232 to 234 | – | – | – | – | –
COc1ccc(C(=O)NNC(=O)COc2nc(-c3ccc(OC)c(OC)c3)cc(-c3ccc(OC)c(OC)c3)c2C#N)cc1 [Compound 9b, N'-[2-(3-cyano-4,6-bis(3,4-dimethoxyphenyl)pyridin-2-yloxy)acetyl]-4-methoxybenzo hydrazide] | 7.08 ± 0.16 | 10.2 ± 0.92 | 19.3 ± 0.86 | 17.9 ± 0.74 | 9.95 ± 1.06 | 170 to 172 | – | – | – | – | –
COc1ccc(-c2cc(-c3ccc(OC)c(OC)c3)c(C#N)c(OCc3nnc(S)o3)n2)cc1OC [Compound 14, 2-((5-Mercapto-1,3,4-oxadiazol-2-yl)methoxy)-4,6-bis(3,4-dimethoxyphenyl)pyridine-3-carbonitrile] | 30.3 ± 1.12 | > 50 | > 50 | > 50 | > 50 | – | – | – | – | – | –
